How the values were obtained:
[1] = system: thymosin beta-4 (TMSB4X) mRNA; experiment: Thymosin beta-4 stimulation assay (QUANTIGENE multiplex mRNA assay); assay type: cell-based; conditions: human dermal fibroblasts, 24 hours
Experimental: Normal human dermal fibroblasts were cultured in 96-well tissue culture-treated plates, containing appropriate culture medium. Stock solutions of actives were made in an appropriate vehicle (water or DMSO). Cells were treated with test material or respective vehicle control diluted in growth medium for 24 hours in a humidified 37° C. incubator with 10% CO2. After incubation, growth medium from each plate was removed and 100 μL, of lysis buffer was added to the wells and placed in 37° C. incubator with 10% CO2 for 30 minutes. At the end of incubation, the cell lysates were collected in freezer plates and placed in −80° C. freezer until analysis. Changes in mRNA for thymosin beta-4 (TMSB4X) after treatment were analyzed using Affymetrix's QUANTIGENE® multiplex assay that employs a branched DNA signal amplification technology, following the manufacturer's instructions (Affymetrix, Calif.). Percent increase in mRNA for thymosin beta-4 (TMSB4X) was calculated by comparing the test results to the control. The percent up-regulation is converted to a scaled score as shown below in Table 2.
A variety of botanical extracts were tested for the ability to up-regulate Thymosin beta-4 according to the method of Example 1. The concentrations of each extract are provided based on the dry weight of the given plant extract, by which is meant the weight of the extract after volatile extraction solvents have been removed. The cells tested were primary human dermal fibroblasts.
Synthetic compounds 1-4 were also tested as active agents for the ability to upregulate thymosin beta-4 according to the method of Example 1.

[2] = system: thymosin beta-4; experiment: Mode of operation of retinol in human skin
[3] = system: IL-8 gene and protein expression; experiment: Anti-inflammatory effect of TB-4 in TNF-alpha treated human dermal fibroblasts (qPCR, ELISA, PCR array); assay type: cell-based
Experimental: Commercially obtained human dermal fibroblasts were treated with tumor necrosis factor alpha for 6 hours to induce inflammation. Cells were either pre-treated with recombinant TB-4 or control media to assess its anti-inflammatory effect. Cell lysates and media were collected and qPCR and ELISA were performed to assess IL-8 gene and protein expression. Human cytokines and chemokines PCR array was also performed to investigate the impact of TB-4 on the expression profile of key secreted proteins in the inflammation pathway. […] Therefore, modulating endogenous TB-4 could be adopted as an avenue to battle inflammatory skin damage resulting from skin chronological aging and photoaging.

CCOCCCNC(=O)c1cc(NC(=O)/C=C/c2ccccc2)ccc1N1CCC(Cc2ccccc2)CC1 [Compound 1]
Thymosin beta-4 (TMSB4X) Degree of Upregulation ([1]; compound Conc. 0.001%): ++ (41-60)

Cc1ccc(C(=O)CC(NCc2ccccc2)C(=O)O)cc1 (stereo not shown) [Compound 2]
Thymosin beta-4 (TMSB4X) Degree of Upregulation ([1]; compound Conc. 0.0001%): + (21-40)

CCc1c(C(=O)N2CCCC2)cnn1-c1ccccc1Cl [Compound 4]
Thymosin beta-4 (TMSB4X) Degree of Upregulation ([1]; compound Conc. 0.00001%): + (21-40)

CC1=C(/C=C/C(C)=C/C=C/C(C)=C/CO)C(C)(C)CCC1 [retinol]
upregulation of thymosin beta-4 [2]: potent upregulator

TB-4: recombinant thymosin beta-4, 43 amino acid peptide, 4.9 kDa (SDKPDMAEIEKFDKSKLKKTETQEKNPLPSKETIEQEKQAGES; UniProt P62328 2-44, looked up)
regulation of key cytokines and chemokines genes ([3]; human cytokines and chemokines PCR array, TNF-alpha treated fibroblasts): significantly regulates | suppression of IL-8 protein secretion caused by TNF-alpha stimulation ([3]; pre-treatment with recombinant TB-4, TNF-alpha 6 hours, ELISA): greater than 50% | suppression of IL-8 gene expression caused by TNF-alpha stimulation ([3]; pre-treatment with recombinant TB-4, TNF-alpha 6 hours, qPCR): greater than 50%
